“Also recorded” adds a separate entry of the source. Where two headings read alike, the source gives them in different places.
Key:
[1] = system: hypothalamus-pituitary-adrenal (HPA) axis; test: Hormones of the HPA axis; assay type: in vivo, human; settings: all dose groups, during treatment
[2] = In vitro plasma protein binding; assay type: in vitro ADME; settings: internal communication, data not shown
[3] = BI 187004 concentration in subcutaneous adipose tissue biopsies; settings: gMean (%gCV); for BI 187004 AT Cday15: 24 h after last dose; for BI 187004 AT Cday2: immediately after second dose
HPA axis = test: Total urinary corticosteroid excretion; assay type: in vivo, human
[4] = In vitro blood cell partitioning; assay type: in vitro ADME; settings: 10 and 100 nmol/L, internal communication, data not shown
Metabolic parameters = assay type: in vivo, human
[5] = human, in vivo
[6] = cited from earlier work
[7] = assay type: in vivo, human; settings: for BI 187004 Plasma Cday15: 24 h after last dose; for BI 187004 Plasma Cday15 / fe0–24 / CL/F SS / fe0–24,SS / BI 187004 Plasma Cday2 / Cmax: gMean (%gCV); for BI 187004 Plasma Cday2: immediately after second dose; for CL renal / Vd/F / AUC / AUC(0-t) / half-life / Cmax / Tmax: human, oral; for CL renal: plasma and urine; for Vd/F / AUC / AUC(0-t) / half-life / Cmax / Tmax: plasma; for Tmax: t max, median (min–max)

Q: What does the source list for `N#Cc1ccc2c(c1)[C@H]1CCCN(C(=O)c3ccc4[nH]cnc4c3)[C@H]1C2` [BI 187004]?
A: mean ACTH levels [1]: increased but within the normal range; plasma protein binding [2]: no increase in plasma protein binding down to 10 nmol/L; BI 187004 AT Cday15 ([3]; 10 mg): 45.5 (37.0) nmol/L; BI 187004 AT Cday2 ([3]; 10 mg): 34.5 (38.3) nmol/L; BI 187004 AT Cday15 ([3]; 20 mg): 66.1 (25.5) nmol/L; BI 187004 AT Cday2 ([3]; 20 mg): 51.8 (83.7) nmol/L; BI 187004 AT Cday15 ([3]; 40 mg): 74.2 (29.6) nmol/L; BI 187004 AT Cday2 ([3]; 40 mg): 142 (72.1) nmol/L; BI 187004 AT Cday15 ([3]; 80 mg): 140 (28.4) nmol/L; BI 187004 AT Cday2 ([3]; 80 mg): 142 (55.9) nmol/L; BI 187004 AT Cday15 ([3]; 160 mg): 238 (56.6) nmol/L; BI 187004 AT Cday2 ([3]; 160 mg): 518 (65.7) nmol/L; BI 187004 AT Cday15 ([3]; 240 mg): 245 (62.8) nmol/L; BI 187004 AT Cday2 ([3]; 240 mg): 872 (54.6) nmol/L; BI 187004 AT Cday15 ([3]; 360 mg): 454 (29.3) nmol/L; BI 187004 AT Cday2 ([3]; 360 mg): 925 (41.7) nmol/L; clinical laboratory evaluations and vital signs (Safety and tolerability; 10–360 mg over 14 days): no notable findings; hypoglycemic episodes (Safety and tolerability; 10–360 mg over 14 days): No hypoglycemic episodes were reported; intensity of AEs (Safety and tolerability; all dose groups): mild or moderate intensity; serious AE or death (Safety and tolerability; during the trial): No serious AE or death occurred; AE leading to discontinuation of treatment (Safety and tolerability; one patient, 360 mg, day 6, drug-related, moderate intensity): supraventricular tachycardia; pollakiuria (AE) (Safety and tolerability; total BI 187004 group (6 patients, all 80–360 mg)): 10.7%; gastrointestinal disorders (AE) (Safety and tolerability; total BI 187004 group (9 patients)): 16.1%; nervous system disorders (only disorder: headache) (Safety and tolerability; total BI 187004 group (11 patients)): 19.6%; frequency of patients reported with any AE (Safety and tolerability; total BI 187004 group (33 patients)): 58.9%; incidence of drug-related adverse events (Safety and tolerability; total BI 187004 group, 10–360 mg once daily over 14 days (n=29)): 51.8%; total urinary corticosteroid excretion, % of baseline, range over dose groups (HPA axis; after 14 days of treatment): 176.2–253.5%; total urinary corticosteroid excretion increased to (HPA axis; highest dose-group value): 253.5%; increase in total urinary corticosteroid excretion (HPA axis; multiple doses, 14 days): 2.48 fold; blood cell partitioning [4]: no difference in blood cell partitioning at low concentrations; fasting plasma glucose over the treatment period (Metabolic parameters; 14 days): not affected; body weight (Metabolic parameters; baseline, day 15, end-of-trial): remained unchanged; also recorded: Changes in body weight could not be observed; general disorders and administration site conditions (AE, system organ class) [5]: 14.3%; drug-related AEs ([6]; SRD study, healthy volunteers): 16.7%; half-life ([6]; single dose 5 mg, healthy volunteers): 33.5 h; half-life ([6]; single dose 360 mg, healthy volunteers): 13.9 h; increase of total urinary corticosteroid excretion ([6]; single doses 2.5–360 mg): up to 2 fold; BI 187004 Plasma Cday15 ([7]; 10 mg): 322 (37.4) nmol/L; fe0–24 ([7]; 10 mg, Day 1): 5.72 (27.2) %; CL/F SS ([7]; 10 mg, Day 14): 2.01 (28.2) L/h; fe0–24,SS ([7]; 10 mg, Day 14): 10.3 (26.6) %; BI 187004 Plasma Cday2 ([7]; 10 mg): 156 (56.1) nmol/L; BI 187004 Plasma Cday15 ([7]; 20 mg): 520 (25.6) nmol/L; fe0–24 ([7]; 20 mg, Day 1): 6.14 (20.8) %; CL/F SS ([7]; 20 mg, Day 14): 2.53 (24.7) L/h; fe0–24,SS ([7]; 20 mg, Day 14): 9.83 (24.1) %; BI 187004 Plasma Cday2 ([7]; 20 mg): 291 (23.3) nmol/L; BI 187004 Plasma Cday15 ([7]; 40 mg): 744 (25.8) nmol/L; fe0–24 ([7]; 40 mg, Day 1): 3.82 (27.3) %; CL/F SS ([7]; 40 mg, Day 14): 3.16 (21.1) L/h; fe0–24,SS ([7]; 40 mg, Day 14): 6.31 (26.7) %; BI 187004 Plasma Cday2 ([7]; 40 mg): 511 (23.9) nmol/L; BI 187004 Plasma Cday15 ([7]; 80 mg): 1,360 (24.8) nmol/L; fe0–24 ([7]; 80 mg, Day 1): 4.15 (39.3) %; CL/F SS ([7]; 80 mg, Day 14): 3.97 (26.4) L/h; fe0–24,SS ([7]; 80 mg, Day 14): 6.05 (27.0) %; BI 187004 Plasma Cday2 ([7]; 80 mg): 1,020 (30.0) nmol/L; BI 187004 Plasma Cday15 ([7]; 160 mg): 2,430 (54.7) nmol/L; fe0–24 ([7]; 160 mg, Day 1): 5.12 (11.6) %; CL/F SS ([7]; 160 mg, Day 14): 3.69 (37.9) L/h; fe0–24,SS ([7]; 160 mg, Day 14): 6.82 (21.6) %; BI 187004 Plasma Cday2 ([7]; 160 mg): 1,660 (57.7) nmol/L; BI 187004 Plasma Cday15 ([7]; 240 mg): 2,280 (76.0) nmol/L; fe0–24 ([7]; 240 mg, Day 1): 4.87 (24.4) %; fe0–24,SS ([7]; 240 mg, Day 14): 5.83 (22.7) %; BI 187004 Plasma Cday2 ([7]; 240 mg): 2,420 (50.6) nmol/L; BI 187004 Plasma Cday15 ([7]; 360 mg): 2,780 (19.6) nmol/L; fe0–24 ([7]; 360 mg, Day 1): 5.11 (22.4) %; CL/F SS ([7]; 360 mg, Day 14): 6.47 (12.3) L/h; fe0–24,SS ([7]; 360 mg, Day 14): 6.46 (8.01) %; BI 187004 Plasma Cday2 ([7]; 360 mg): 2,660 (36.5) nmol/L; dose proportionality of Cmax and AUCτ,ss ([7]; 10 to 360 mg): increased non-proportionally; time of absorption ([7]; 10–360 mg): ≤ 2 h; gMean oral clearance (CL/F,ss), range over dose groups ([7]; 10–360 mg, day 14): 2.01 to 6.47 L/h; accumulation in plasma ([7]; between days 1 and 14): limited; CL renal ([7]; 10 mg): 3.72 mL/min; CL renal ([7]; 20 mg): 4.3 mL/min; CL renal ([7]; 40 mg): 2.68 mL/min; CL renal ([7]; 80 mg): 3.47 mL/min; CL renal ([7]; 160 mg): 3.78 mL/min; CL renal ([7]; 240 mg): 4.38 mL/min; CL renal ([7]; 360 mg): 6.4 mL/min; Vd/F [7]: 195 to 1160 L; AUC ([7]; 10 mg): 14.5 µM·h; AUC(0-t) ([7]; 10 mg): 7.5 µM·h; Vd/F ([7]; 10 mg): 308 L; half-life ([7]; 10 mg): 106 h; Cmax ([7]; 10 mg, C max, 10 mg, Day 1): 0.681 µM; Cmax ([7]; 10 mg, C max,SS, 10 mg, Day 14): 1.24 µM; Tmax ([7]; 10 mg, 10 mg, Day 1): 2 h; Tmax ([7]; 10 mg, SS, 10 mg, Day 14): 0.834 h; AUC ([7]; 20 mg): 23 µM·h; AUC(0-t) ([7]; 20 mg): 13.9 µM·h; Vd/F ([7]; 20 mg): 253 L; half-life ([7]; 20 mg): 69.2 h; Cmax ([7]; 20 mg, C max, 20 mg, Day 1): 1.37 µM; Cmax ([7]; 20 mg, C max,SS, 20 mg, Day 14): 1.94 µM; Tmax ([7]; 20 mg, 20 mg, Day 1): 0.834 h; Tmax ([7]; 20 mg, SS, 20 mg, Day 14): 0.834 h; AUC ([7]; 40 mg): 26.9 µM·h; AUC(0-t) ([7]; 40 mg): 27.7 µM·h; Vd/F ([7]; 40 mg): 195 L; half-life ([7]; 40 mg): 42.8 h; Cmax ([7]; 40 mg, C max, 40 mg, Day 1): 2.92 µM; Cmax ([7]; 40 mg, C max,SS, 40 mg, Day 14): 3.4 µM; Tmax ([7]; 40 mg, 40 mg, Day 1): 1 h; Tmax ([7]; 40 mg, SS, 40 mg, Day 14): 0.834 h; AUC ([7]; 80 mg): 58.8 µM·h; AUC(0-t) ([7]; 80 mg): 46.5 µM·h; Vd/F ([7]; 80 mg): 346 L; half-life ([7]; 80 mg): 60.3 h; Cmax ([7]; 80 mg, C max, 80 mg, Day 1): 4.32 µM; Cmax ([7]; 80 mg, C max,SS, 80 mg, Day 14): 4.93 µM; Tmax ([7]; 80 mg, 80 mg, Day 1): 0.834 h; Tmax ([7]; 80 mg, SS, 80 mg, Day 14): 1.25 h; AUC ([7]; 160 mg): 127 µM·h; AUC(0-t) ([7]; 160 mg): 106 µM·h; Vd/F ([7]; 160 mg): 230 L; half-life ([7]; 160 mg): 43.1 h; Cmax ([7]; 160 mg, C max, 160 mg, Day 1): 11.5 µM; Cmax ([7]; 160 mg, C max,SS, 160 mg, Day 14): 12.1 µM; Tmax ([7]; 160 mg, 160 mg, Day 1): 1 h; Tmax ([7]; 160 mg, SS, 160 mg, Day 14): 0.667 h; AUC ([7]; 240 mg): 145 µM·h; AUC(0-t) ([7]; 240 mg): 130 µM·h; Vd/F ([7]; 240 mg): 359 L; half-life ([7]; 240 mg): 51.5 h; Cmax ([7]; 240 mg, C max, 240 mg, Day 1): 14.6 µM; Cmax ([7]; 240 mg, C max,SS, 240 mg, Day 14): 15 µM; Tmax ([7]; 240 mg, 240 mg, Day 1): 1 h; Tmax ([7]; 240 mg, SS, 240 mg, Day 14): 0.667 h; AUC ([7]; 360 mg): 162 µM·h; AUC(0-t) ([7]; 360 mg): 140 µM·h; Vd/F ([7]; 360 mg): 1160 L; half-life ([7]; 360 mg): 124 h; Cmax ([7]; 360 mg, C max, 360 mg, Day 1): 14.3 µM; Cmax ([7]; 360 mg, C max,SS, 360 mg, Day 14): 15.5 µM; Tmax ([7]; 360 mg, 360 mg, Day 1): 1 h; Tmax ([7]; 360 mg, SS, 360 mg, Day 14): 1.5 h

Reference: PMC9811530 (Experimental and Clinical Endocrinology & Diabetes, 2022)
